These results are taken from article PMC9927415, “Tyrosine Kinase Inhibitors Display Potent Activity against Cryptosporidium parvum” (Microbiology Spectrum, 2022).

The subject of one assay is Cryptosporidium parvum. The assay can be described thus: In vitro C. parvum growth inhibition assay (Nluc reporter strain in HCT-8 cells). The assay is classed as cell-based. To be noted: 48 h. How it is done:
Host intestinal epithelial adenocarcinoma (HCT-8) cells were seeded into 96-well plates and grown to 70% confluence in RPMI medium supplemented with L-glutamine, 10% fetal bovine serum (FBS), 0.1 U/mL penicillin, 0.1 μg/mL streptomycin, 0.25 μg/mL amphotericin B and 1 mM sodium pyruvate. The host cell medium was aspirated and replaced with Cryptosporidium infection media (RPMI containing 2% FBS, 0.1 U/mL penicillin, 0.1 μg/mL streptomycin and 0.25 μg/mL amphotericin B) media prior to infection. The HCT-8 cells were infected with bleached and washed Nluc expressing C. parvum oocysts (2,000 oocysts per well) to which 10 μM compounds were added and plates were incubated for 48 h at 37°C, 5% CO2 and luminescence was measured using the protocol described previously ([14], [58]). […] Negative (no drug) and positive control (10 μM nitazoxanide) wells (three replicates each) were also set-up in the same plate. After the incubation, medium was removed and 100 μL of NanoGlo lysis buffer (Promega) was added to the wells followed by incubation for 15 min at 37°C, 5% CO2. The lysate was suspended by pipetting and 100 μL of NanoGlo lysis buffer containing 1:50 of NanoGlo substrate (Promega) was added to each well. […] For the dose response assay, compounds were tested in triplicate wells in two independent experiments and percent luminescence of no drug was calculated.
EC50 values were calculated using a nonlinear regression (curve fit of log-dose versus response) in GraphPad Prism version 8.

A further assay has as its system JAK kinase domains. The assay can be described thus: KINOMEscan competitive binding. Further details: species or system human. To be noted: kinome profiling, 10 μM. The source says: The kinases were expressed as fusions to T7 bacteriophage. This is a sensitive, competitive binding assay where test compounds were used to displace immobilized ATP-site binding probe ligands from kinases of interest. The amount of kinase that remained bound to the immobilized probe ligands on the solid support was quantified. Percentage inhibition data were was plotted on kinome trees using the web-based tool KinMap (http://www.kinhub.org/kinmap) ([60]).

A further assay deals with T1, PAK2 (Homo sapiens, UniProt Q13177).
T1 construct: purchased DiscoverX (KINOMEscan)
T1 sequence (Q13177 whole entry): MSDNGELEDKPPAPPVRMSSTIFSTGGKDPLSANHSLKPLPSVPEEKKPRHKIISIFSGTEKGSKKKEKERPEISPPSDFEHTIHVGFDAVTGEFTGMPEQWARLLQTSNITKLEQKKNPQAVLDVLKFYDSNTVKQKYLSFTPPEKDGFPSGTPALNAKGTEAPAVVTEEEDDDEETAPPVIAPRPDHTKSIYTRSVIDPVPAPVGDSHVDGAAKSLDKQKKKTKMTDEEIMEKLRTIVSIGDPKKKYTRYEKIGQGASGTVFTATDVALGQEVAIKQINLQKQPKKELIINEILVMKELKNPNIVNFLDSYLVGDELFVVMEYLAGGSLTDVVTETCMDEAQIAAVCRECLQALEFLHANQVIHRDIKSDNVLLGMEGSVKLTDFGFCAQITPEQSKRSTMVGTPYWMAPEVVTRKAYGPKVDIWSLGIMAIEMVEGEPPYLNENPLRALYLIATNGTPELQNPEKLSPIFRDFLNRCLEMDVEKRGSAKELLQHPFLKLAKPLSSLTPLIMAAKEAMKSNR
The assay can be described thus: KINOMEscan competitive binding. The settings on record: n=1, read-out: Percent inhibition, PAK2.

The target in another assay is T2, PKN2 (Homo sapiens, UniProt Q16513).
T2 construct: purchased DiscoverX (KINOMEscan)
T2 sequence (Q16513 whole entry): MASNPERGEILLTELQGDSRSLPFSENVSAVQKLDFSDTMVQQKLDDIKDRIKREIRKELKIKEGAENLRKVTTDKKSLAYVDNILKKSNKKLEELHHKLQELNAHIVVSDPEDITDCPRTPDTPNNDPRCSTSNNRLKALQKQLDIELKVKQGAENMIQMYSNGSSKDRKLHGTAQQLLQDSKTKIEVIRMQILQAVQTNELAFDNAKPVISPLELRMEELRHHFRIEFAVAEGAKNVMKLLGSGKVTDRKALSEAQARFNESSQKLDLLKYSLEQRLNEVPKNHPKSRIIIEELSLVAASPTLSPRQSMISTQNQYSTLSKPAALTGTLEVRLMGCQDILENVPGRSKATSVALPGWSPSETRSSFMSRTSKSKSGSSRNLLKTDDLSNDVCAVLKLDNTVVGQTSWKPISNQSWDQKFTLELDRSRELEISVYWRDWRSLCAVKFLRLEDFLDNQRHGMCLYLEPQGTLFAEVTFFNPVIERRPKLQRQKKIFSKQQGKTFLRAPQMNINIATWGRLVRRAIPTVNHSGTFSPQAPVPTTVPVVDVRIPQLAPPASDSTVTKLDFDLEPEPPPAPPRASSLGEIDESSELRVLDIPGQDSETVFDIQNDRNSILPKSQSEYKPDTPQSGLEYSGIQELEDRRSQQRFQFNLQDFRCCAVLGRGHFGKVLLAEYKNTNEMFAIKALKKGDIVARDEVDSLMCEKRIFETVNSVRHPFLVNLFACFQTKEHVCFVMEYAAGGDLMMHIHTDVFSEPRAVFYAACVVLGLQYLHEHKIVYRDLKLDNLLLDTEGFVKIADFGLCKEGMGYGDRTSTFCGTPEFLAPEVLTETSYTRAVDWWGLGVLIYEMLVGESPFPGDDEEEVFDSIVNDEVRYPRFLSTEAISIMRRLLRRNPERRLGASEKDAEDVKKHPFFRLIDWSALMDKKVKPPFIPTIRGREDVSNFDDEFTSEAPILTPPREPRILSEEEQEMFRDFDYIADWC
Kind of assay: KINOMEscan competitive binding. The settings on record: n=1, read-out: Percent inhibition, PKN2.

In a further assay the target is T3, RET (Homo sapiens, UniProt P07949).
T3 construct: purchased DiscoverX (KINOMEscan)
T3 sequence (P07949 29-1114): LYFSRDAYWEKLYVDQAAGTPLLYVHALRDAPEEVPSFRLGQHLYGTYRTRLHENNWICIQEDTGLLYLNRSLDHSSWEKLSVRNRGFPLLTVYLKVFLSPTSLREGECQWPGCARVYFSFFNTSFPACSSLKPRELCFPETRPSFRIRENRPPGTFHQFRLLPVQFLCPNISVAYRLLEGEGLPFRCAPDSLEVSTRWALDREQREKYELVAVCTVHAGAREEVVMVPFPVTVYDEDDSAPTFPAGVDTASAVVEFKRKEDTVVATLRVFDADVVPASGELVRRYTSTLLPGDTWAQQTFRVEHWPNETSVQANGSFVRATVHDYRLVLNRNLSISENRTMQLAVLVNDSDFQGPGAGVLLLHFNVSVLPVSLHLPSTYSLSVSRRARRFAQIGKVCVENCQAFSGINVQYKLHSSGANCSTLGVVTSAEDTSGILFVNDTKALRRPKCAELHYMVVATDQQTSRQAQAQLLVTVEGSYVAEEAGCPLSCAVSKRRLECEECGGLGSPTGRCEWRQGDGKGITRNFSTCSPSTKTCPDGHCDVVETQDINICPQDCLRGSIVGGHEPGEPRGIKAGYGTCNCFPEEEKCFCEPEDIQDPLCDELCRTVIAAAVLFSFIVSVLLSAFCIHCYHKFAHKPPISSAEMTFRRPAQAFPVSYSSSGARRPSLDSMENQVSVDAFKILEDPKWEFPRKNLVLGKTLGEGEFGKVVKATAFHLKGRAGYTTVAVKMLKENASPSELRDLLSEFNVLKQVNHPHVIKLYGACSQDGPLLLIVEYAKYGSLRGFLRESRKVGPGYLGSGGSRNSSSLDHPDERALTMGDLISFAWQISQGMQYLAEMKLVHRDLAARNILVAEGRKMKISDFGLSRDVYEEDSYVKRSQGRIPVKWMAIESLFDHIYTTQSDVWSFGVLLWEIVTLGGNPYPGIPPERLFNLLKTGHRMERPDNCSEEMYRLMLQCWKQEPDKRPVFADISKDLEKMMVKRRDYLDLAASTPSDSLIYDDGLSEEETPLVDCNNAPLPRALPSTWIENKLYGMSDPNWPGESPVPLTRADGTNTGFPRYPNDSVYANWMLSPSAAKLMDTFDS
Kind of assay: KINOMEscan competitive binding. To be noted: n=1, read-out: Percent inhibition, RET.

For a further assay, the target named is T4, RIPK2 (Homo sapiens, UniProt O43353).
T4 construct: purchased DiscoverX (KINOMEscan)
T4 sequence (O43353 whole entry): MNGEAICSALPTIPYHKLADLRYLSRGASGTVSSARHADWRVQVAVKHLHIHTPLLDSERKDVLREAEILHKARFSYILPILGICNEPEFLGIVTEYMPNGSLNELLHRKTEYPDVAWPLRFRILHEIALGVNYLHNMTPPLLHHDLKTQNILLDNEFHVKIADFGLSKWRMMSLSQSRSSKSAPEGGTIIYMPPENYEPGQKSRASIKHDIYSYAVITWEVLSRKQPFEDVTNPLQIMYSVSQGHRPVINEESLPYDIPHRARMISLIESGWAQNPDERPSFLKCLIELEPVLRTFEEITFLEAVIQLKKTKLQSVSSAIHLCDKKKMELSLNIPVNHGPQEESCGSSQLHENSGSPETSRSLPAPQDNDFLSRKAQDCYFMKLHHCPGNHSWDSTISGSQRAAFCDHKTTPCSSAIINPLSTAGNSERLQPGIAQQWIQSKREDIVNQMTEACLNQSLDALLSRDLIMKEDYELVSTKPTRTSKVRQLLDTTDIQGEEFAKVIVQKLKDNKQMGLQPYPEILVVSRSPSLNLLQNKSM
Kind of assay: KINOMEscan competitive binding. The settings on record: n=1, read-out: Percent inhibition, RIPK2.

A further assay concerns the target T5, RPS6KA5(Kin.Dom.1) (Homo sapiens, UniProt O75582).
T5 construct: RPS6KA5(Kin.Dom.1); purchased DiscoverX (KINOMEscan)
Kind of assay: KINOMEscan competitive binding. To be noted: n=1, read-out: Percent inhibition, RPS6KA5(Kin.Dom.1).

A further assay addresses T6, SRPK1 (Homo sapiens, UniProt Q96SB4).
T6 construct: purchased DiscoverX (KINOMEscan)
Kind of assay: KINOMEscan competitive binding. To be noted: n=1, read-out: Percent inhibition, SRPK1.

For another assay, the target named is T7, STK33 (Homo sapiens, UniProt Q9BYT3).
T7 construct: purchased DiscoverX (KINOMEscan)
T7 sequence (Q9BYT3 whole entry): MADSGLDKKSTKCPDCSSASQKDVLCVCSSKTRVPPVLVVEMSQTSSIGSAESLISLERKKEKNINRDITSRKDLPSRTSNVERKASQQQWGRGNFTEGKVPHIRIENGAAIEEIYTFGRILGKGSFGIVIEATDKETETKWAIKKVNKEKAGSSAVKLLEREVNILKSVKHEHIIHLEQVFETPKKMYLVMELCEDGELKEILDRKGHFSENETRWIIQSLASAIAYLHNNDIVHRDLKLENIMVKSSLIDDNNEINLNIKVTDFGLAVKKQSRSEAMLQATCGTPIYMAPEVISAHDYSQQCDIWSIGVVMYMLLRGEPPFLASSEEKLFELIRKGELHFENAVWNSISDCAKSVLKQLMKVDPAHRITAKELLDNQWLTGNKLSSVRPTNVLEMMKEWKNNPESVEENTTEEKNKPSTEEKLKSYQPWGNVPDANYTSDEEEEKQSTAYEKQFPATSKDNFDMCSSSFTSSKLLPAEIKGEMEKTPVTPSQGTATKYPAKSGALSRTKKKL
The assay can be described thus: KINOMEscan competitive binding. The settings on record: n=1, read-out: Percent inhibition, STK33.

Another assay has as its target T8, TNNI3K (Homo sapiens, UniProt Q59H18).
T8 construct: purchased DiscoverX (KINOMEscan)
T8 sequence (Q59H18 1-835): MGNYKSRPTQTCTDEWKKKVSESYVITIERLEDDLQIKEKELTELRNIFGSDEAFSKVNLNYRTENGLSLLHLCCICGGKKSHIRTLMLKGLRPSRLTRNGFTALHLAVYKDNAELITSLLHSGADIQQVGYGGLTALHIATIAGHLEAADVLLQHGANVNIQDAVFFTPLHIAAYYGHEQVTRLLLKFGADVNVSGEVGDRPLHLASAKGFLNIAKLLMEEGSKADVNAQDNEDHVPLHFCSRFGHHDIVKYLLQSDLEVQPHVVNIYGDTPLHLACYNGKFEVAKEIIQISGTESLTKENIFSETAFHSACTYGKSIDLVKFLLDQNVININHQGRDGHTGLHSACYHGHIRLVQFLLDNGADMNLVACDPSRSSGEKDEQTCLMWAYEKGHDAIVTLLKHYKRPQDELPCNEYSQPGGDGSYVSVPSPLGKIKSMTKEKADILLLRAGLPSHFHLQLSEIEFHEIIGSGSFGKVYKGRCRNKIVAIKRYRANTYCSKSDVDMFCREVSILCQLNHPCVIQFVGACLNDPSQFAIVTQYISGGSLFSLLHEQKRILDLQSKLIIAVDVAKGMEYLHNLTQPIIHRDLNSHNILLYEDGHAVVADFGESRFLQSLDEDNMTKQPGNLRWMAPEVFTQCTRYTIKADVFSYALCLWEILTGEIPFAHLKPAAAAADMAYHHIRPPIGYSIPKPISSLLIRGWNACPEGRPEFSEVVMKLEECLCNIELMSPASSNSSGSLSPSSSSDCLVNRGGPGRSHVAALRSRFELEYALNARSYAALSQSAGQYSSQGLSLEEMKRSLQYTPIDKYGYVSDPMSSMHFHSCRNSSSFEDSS
The assay can be described thus: KINOMEscan competitive binding. The settings on record: n=1, read-out: Percent inhibition, TNNI3K.

In a further assay the target is JAK3. Set-up: method as in earlier work. The settings on record: previous study; read-out: Ki against JAK3; cited from earlier work.

T5 sequence (O75582 1-387 limits assumed): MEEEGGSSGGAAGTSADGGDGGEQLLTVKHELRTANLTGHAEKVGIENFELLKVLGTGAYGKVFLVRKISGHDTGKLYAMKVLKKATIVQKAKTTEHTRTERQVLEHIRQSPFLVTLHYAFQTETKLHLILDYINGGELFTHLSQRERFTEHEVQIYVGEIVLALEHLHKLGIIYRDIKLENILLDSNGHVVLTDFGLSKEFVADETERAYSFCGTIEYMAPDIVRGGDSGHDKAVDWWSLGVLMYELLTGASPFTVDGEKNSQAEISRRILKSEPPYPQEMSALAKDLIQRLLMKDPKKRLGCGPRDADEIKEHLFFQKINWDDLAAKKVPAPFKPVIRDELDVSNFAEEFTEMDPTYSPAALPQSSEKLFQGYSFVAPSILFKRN
T6 sequence (Q96SB4 whole entry): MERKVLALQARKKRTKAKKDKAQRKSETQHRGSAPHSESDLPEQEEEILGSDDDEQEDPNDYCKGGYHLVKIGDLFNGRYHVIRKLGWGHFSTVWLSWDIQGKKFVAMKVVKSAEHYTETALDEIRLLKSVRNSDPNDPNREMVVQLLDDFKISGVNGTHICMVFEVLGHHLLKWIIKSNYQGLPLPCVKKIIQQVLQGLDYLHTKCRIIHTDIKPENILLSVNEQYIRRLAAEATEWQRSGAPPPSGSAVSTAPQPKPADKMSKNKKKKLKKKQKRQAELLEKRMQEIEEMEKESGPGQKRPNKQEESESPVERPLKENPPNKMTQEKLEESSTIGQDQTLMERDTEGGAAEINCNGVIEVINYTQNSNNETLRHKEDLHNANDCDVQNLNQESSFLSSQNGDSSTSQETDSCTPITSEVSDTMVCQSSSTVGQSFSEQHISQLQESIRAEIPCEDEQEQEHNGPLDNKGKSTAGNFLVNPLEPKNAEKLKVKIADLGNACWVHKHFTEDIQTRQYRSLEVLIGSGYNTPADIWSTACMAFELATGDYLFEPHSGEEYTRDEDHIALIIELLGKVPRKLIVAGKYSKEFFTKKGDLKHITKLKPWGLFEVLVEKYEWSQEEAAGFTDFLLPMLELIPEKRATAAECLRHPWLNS

Take `c1ccc(COc2cccc(-c3ccnc4[nH]ccc34)c2)cc1` [Compound 9]: the 50% effective concentration (EC50) (commonly the concentration needed to bring the measured effect to its halfway point) in the assay with Cryptosporidium parvum (mean of two independent experiments, dose response 10 nM to 10 μM, read-out: Cp EC50) came out at 310 nM. Also, the inhibition (commonly the share of the control response that was lost under treatment) at 10 µM turned out to be 95.2% with Cryptosporidium parvum (primary screen, 10 μM compound, three technical replicates, read-out: Mean percent inhibition of C. parvum growth); 0% on PAK2; 0% at PKN2; 0% on RET; 0% at RIPK2; 0% on RPS6KA5(Kin.Dom.1). The figures for the inhibition at 10 µM at SRPK1, on STK33 and on TNNI3K were 71.2%, 0% and 0%, respectively. Besides, the “binding to JAK kinase domains, in words” value with JAK kinase domains is on record as “little binding”. For the same compound, on JAK3, the Ki – broadly, the equilibrium dissociation constant of an inhibitor or competing ligand from its target – was less than 500 nM.
